# Experimental data: patent US10973817B2, “Pharmaceutical compounds” (SENTINEL ONCOLOGY LIMITED, priority 2014, dated 2021)
# Structures can show the parent of a compound that is named as a salt.
# Molecular target: Chk-1 kinase (Homo sapiens (Human), UniProt O14757)
# Assay: Chk-1 kinase inhibiting activity (33P-ATP filter-binding kinase assay)
# Format: biochemical
# Conditions: against Chk-1 kinase; recombinant full length GST-tagged, 0.5 nM; CHKtide substrate 20 μM; 120 minutes at room temperature
# Method: Chk-1 Kinase Inhibiting Activity
# The compounds of the invention were tested for activity against Chk-1 kinase using the materials and protocols set out below.
# Base Reaction buffer: 20 mM Hepes (pH 7.5), 10 mM MgCl2, 1 mM EGTA, 0.02% Brij35, 0.02 mg/ml BSA, 0.1 mM Na3VO4, 2 mM DTT, 1% DMSO • Required cofactors are added individually to each kinase reaction Reaction Procedure: (i) Prepare indicated substrate in freshly prepared Base Reaction Buffer (ii) Deliver any required cofactors to the substrate solution above (iii) Deliver indicated kinase into the substrate solution and gently mix (iv) Deliver compounds in DMSO into the kinase reaction mixture (v) Deliver ^33P-ATP (specific activity 0.01 μCi/μl final) into the reaction mixture to initiate the reaction. (vi) Incubate kinase reaction for 120 minutes at room temperature (vii) Reactions are spotted onto P81 ion exchange paper (Whatman #3698-915) (viii) Wash filters extensively in 0.1% phosphoric acid. (ix) Dry filters and measure counts in scintillation counter Kinase Information: CHK-1H—Genbank Accession # AF016582 Recombinant full length construct, N-terminal GST tagged, purified from insect cells. […]
# From the results obtained by following the above protocol, the IC50 values against Chk-1 kinase of each of the compounds of Examples 1-153 were determined and these are shown in Table 3.
# Chk-1 kinase, sequence (O14757 whole entry): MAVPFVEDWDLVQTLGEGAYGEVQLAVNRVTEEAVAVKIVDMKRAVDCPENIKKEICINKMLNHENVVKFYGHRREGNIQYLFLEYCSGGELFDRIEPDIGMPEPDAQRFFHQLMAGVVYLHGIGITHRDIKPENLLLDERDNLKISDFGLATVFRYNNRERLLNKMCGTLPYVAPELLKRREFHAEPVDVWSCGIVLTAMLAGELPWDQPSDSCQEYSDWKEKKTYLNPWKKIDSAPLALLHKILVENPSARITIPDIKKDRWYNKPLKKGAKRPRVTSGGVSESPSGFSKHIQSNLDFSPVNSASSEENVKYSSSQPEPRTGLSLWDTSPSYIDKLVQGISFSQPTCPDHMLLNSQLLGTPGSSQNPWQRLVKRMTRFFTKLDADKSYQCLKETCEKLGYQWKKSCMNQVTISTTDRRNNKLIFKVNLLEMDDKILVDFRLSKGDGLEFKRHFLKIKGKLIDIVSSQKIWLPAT
row,Structure (SMILES),IC50
1,"COc1cc(CN2CC[C@H](OC)C2)ccc1-c1cc(Nc2cnc(C#N)cn2)n[nH]1 [Example 124, 5-[[5-[2-methoxy-4-[[(3S)-3-methoxypyrrolidin-1H-yl]methyl]phenyl]-1H-pyrazol-3-yl]amino]pyrazine-2-carbonitrile, hydrochloride]",0.25 nM
2,"COc1cc(CN2CC[C@@H](OC)C2)ccc1-c1cc(Nc2cnc(C#N)cn2)n[nH]1 [Example 125, 5-[[5-[2-methoxy-4-[[(3R)-3-methoxypyrrolidin-1H-yl]methyl]phenyl]-1H-pyrazol-3-yl]amino]pyrazine-2-carbonitrile, hydrochloride]",0.28 nM
